From PMC3681751, “Identification of a Novel Antimicrobial Peptide from Human Hepatitis B Virus Core Protein Arginine-Rich Domain (ARD)” (PLoS Pathogens, 2013)
Where two headings read alike, the source gives them in different places. Residues, ends and D or L forms follow the SMILES beside them.

Assays:
[1] = tested on: P. aeruginosa (ATCC 27853); type: cell-based, Pseudomonas aeruginosa
Procedure: (§1) The antimicrobial activities of HBc ARD peptides were tested using a number of bacterial strains from ATCC, including Pseudomonas aeruginosa Migula strain (ATCC 27853, ampicillin-resistant), Pseudomonas aeruginosa Migula strain (ATCC 9027, ampicillin-resistant), Klebsiella pneumoniae strain (ATCC 17593), Escherichia coli strain (ATCC 25922), Staphylococcus aureus subsp. strain (ATCC 25923, methicillin-resistant), Staphylococcus aureus subsp. strain (ATCC 29213, methicillin-resistant), Staphylococcus aureus subsp. strain (ATCC 19636, methicillinresistant), and Candida albicans strain (ATCC 10231).
(§2) All peptides were purchased from Yao-Hong Biotechnology Inc. (Taipei, Taiwan). Vendors provided data of peptide characterizations, including HPLC and Mass (data not shown). Antimicrobial activity was determined as described with some modifications as detailed below. Bacteria were grown overnight in Mueller–Hinton broth (Difco) at 37°C, and during the mid-logarithmic phase, bacteria were diluted to 10^6 CFU (colony formation unit)/ml in phosphate buffer (10 mM sodium phosphate and 50 mM sodium chloride, pH 7.2). Peptides were serially diluted in the same buffer. Fifty microliter (µl) of bacteria was mixed with fifty µl of peptides at varying concentrations followed by incubation at 37°C for 3 hours without shaking. At the end of incubation, bacteria were placed on Mueller-Hinton broth agar plates, and allowed growth at 37°C overnight for measurement of minimal bactericidal concentration (MBC). […] All peptides were tested in triplicate.

[2] = tested on: P. aeruginosa (ATCC 9027); type: cell-based, Pseudomonas aeruginosa; settings: for MBC against P. aeruginosa: summary over the P. aeruginosa strains of Table 1 (ATCC 9027, ATCC 27853)
Procedure: as §1, §2

[3] = tested on: K. pneumonia (ATCC 13884); type: cell-based, Klebsiella pneumoniae
E. coli (ATCC 25922) = type: cell-based, Escherichia coli
Procedure: as §1, §2

S. aureus (ATCC 19636) = type: cell-based, Staphylococcus aureus
Procedure: as §1, §2

S. aureus (ATCC 25923) = type: cell-based, Staphylococcus aureus
Procedure: as §1, §2

S. aureus (ATCC 29213) = type: cell-based, Staphylococcus aureus
Procedure: as §1, §2

[4] = tested on: tested bacteria and fungi; type: cell-based; settings: for MBC for bacteria: summary over the tested bacteria of Table 1; for Activity against all of the tested bacteria and fungi: summary of Table 1
Procedure: as §1, §2

[5] = ampicillin-resistant strain, 3 h at 37°C in phosphate buffer pH 7.2, triplicate
[6] = 3 h at 37°C in phosphate buffer pH 7.2, triplicate
[7] = methicillin-resistant strain, 3 h at 37°C in phosphate buffer pH 7.2, triplicate

| Molecule | Antimicrobial activity, MBC ([1]; ATCC 27853, 3 h, pH 7.2) [µM] | Antimicrobial activity, MBC [1, 5] [µg/mL] | Antimicrobial activity, MBC ([2]; ATCC 9027, 3 h, pH 7.2) [µM] | Antimicrobial activity, MBC [2, 5] [µg/mL] | Antimicrobial activity, MBC [3, 6] [µg/mL] | Antimicrobial activity, MBC ([3]; ATCC 13884, 3 h, pH 7.2) [µM] | Antimicrobial activity, MBC (E. coli (ATCC 25922); [6]) [µg/mL] | Antimicrobial activity, MBC (E. coli (ATCC 25922); ATCC 25922, 3 h, pH 7.2) [µM] | Antimicrobial activity, MBC (S. aureus (ATCC 19636); ATCC 19636, 3 h, pH 7.2) [µM] | Antimicrobial activity, MBC (S. aureus (ATCC 19636); [7]) [µg/mL] | MBC against S. aureus (S. aureus (ATCC 19636); text summary over the S. aureus strains of Table 1 (ATCC 19636, 25923, 29213)) | Antimicrobial activity, MBC (S. aureus (ATCC 25923); ATCC 25923, 3 h, pH 7.2) [µM] | Antimicrobial activity, MBC (S. aureus (ATCC 25923); [7]) [µg/mL] | Antimicrobial activity, MBC (S. aureus (ATCC 29213); ATCC 29213, 3 h, pH 7.2) [µM] | Antimicrobial activity, MBC (S. aureus (ATCC 29213); [7]) [µg/mL] | MBC for bacteria [4] | MBC against P. aeruginosa [2] | Activity against all of the tested bacteria and fungi [4] |
| --- | --- | --- | --- | --- | --- | --- | --- | --- | --- | --- | --- | --- | --- | --- | --- | --- | --- | --- |
| CC(C)[C@H](NC(=O)[C@@H](NC(=O)[C@@H](N)[C@@H](C)O)C(C)C)C(=O)N[C@@H](CCCNC(=N)N)C(=O)N[C@@H](CCCNC(=N)N)C(=O)N[C@@H](CCCNC(=N)N)C(=O)NCC(=O)N[C@@H](CCCNC(=N)N)C(=O)N[C@@H](CO)C(=O)N1CCC[C@H]1C(=O)N[C@@H](CCCNC(=N)N)C(=O)N[C@@H](CCCNC(=N)N)C(=O)N[C@@H](CCCNC(=N)N)C(=O)N[C@H](C(=O)N1CCC[C@H]1C(=O)N[C@@H](CO)C(=O)N1CCC[C@H]1C(=O)N[C@@H](CCCNC(=N)N)C(=O)N[C@@H](CCCNC(=N)N)C(=O)N[C@@H](CCCNC(=N)N)C(=O)N[C@@H](CCCNC(=N)N)C(=O)N[C@@H](CO)C(=O)N[C@@H](CCC(N)=O)C(=O)N[C@@H](CO)C(=O)N1CCC[C@H]1C(=O)N[C@@H](CCCNC(=N)N)C(=O)N[C@@H](CCCNC(=N)N)C(=O)N[C@@H](CCCNC(=N)N)C(=O)N[C@@H](CCCNC(=N)N)C(=O)O)[C@@H](C)O [HBc147-175] (H-TVVRRRGRSPRRRTPSPRRRRSQSPRRRR-OH; N-terminus and C-terminus assumed) | 1 | 3.68 | 0.5 | 1.84 | 3.68 | 1 | 3.68 | 1 | > 32 | > 117.86 | lost the activity | > 32 | > 117.86 | > 32 | > 117.86 | – | – | – |
| CC(C)[C@H](NC(=O)[C@@H](NC(=O)[C@@H](N)[C@@H](C)O)C(C)C)C(=O)N[C@@H](CCCNC(=N)N)C(=O)N[C@@H](CCCNC(=N)N)C(=O)N[C@@H](CCCNC(=N)N)C(=O)NCC(=O)N[C@@H](CCCNC(=N)N)C(=O)N[C@@H](CO)C(=O)N1CCC[C@H]1C(=O)N[C@@H](CCCNC(=N)N)C(=O)N[C@@H](CCCNC(=N)N)C(=O)N[C@@H](CCCNC(=N)N)C(=O)N[C@H](C(=O)N1CCC[C@H]1C(=O)N[C@@H](CO)C(=O)N1CCC[C@H]1C(=O)N[C@@H](CCCNC(=N)N)C(=O)N[C@@H](C)C(=O)N[C@@H](C)C(=O)N[C@@H](CCCNC(=N)N)C(=O)N[C@@H](CO)C(=O)N[C@@H](CCC(N)=O)C(=O)N[C@@H](CO)C(=O)N1CCC[C@H]1C(=O)N[C@@H](CCCNC(=N)N)C(=O)N[C@@H](C)C(=O)N[C@@H](C)C(=O)N[C@@H](CCCNC(=N)N)C(=O)N[C@@H](CO)C(=O)N[C@@H](CCC(N)=O)C(=O)N[C@@H](CO)C(=O)N[C@@H](CCCNC(=N)N)C(=O)N[C@@H](CCC(=O)O)C(=O)N[C@@H](CO)C(=O)N[C@@H](CCC(N)=O)C(=O)N[C@@H](CS)C(=O)O)[C@@H](C)O [HBc147-183(34AA)] (H-TVVRRRGRSPRRRTPSPRAARSQSPRAARSQSRESQC-OH; N-terminus and C-terminus assumed) | 32 | 135.94 | 32 | 135.94 | 135.94 | 32 | > 135.94 | > 32 | > 32 | > 135.94 | – | > 32 | > 135.94 | > 32 | > 135.94 | significantly increased | – | – |
| CC(C)[C@H](NC(=O)[C@@H](NC(=O)[C@@H](N)[C@@H](C)O)C(C)C)C(=O)N[C@@H](CCCNC(=N)N)C(=O)N[C@@H](CCCNC(=N)N)C(=O)N[C@@H](CCCNC(=N)N)C(=O)NCC(=O)N[C@@H](CCCNC(=N)N)C(=O)N[C@@H](COP(=O)(O)O)C(=O)N1CCC[C@H]1C(=O)N[C@@H](CCCNC(=N)N)C(=O)N[C@@H](CCCNC(=N)N)C(=O)N[C@@H](CCCNC(=N)N)C(=O)N[C@H](C(=O)N1CCC[C@H]1C(=O)N[C@@H](COP(=O)(O)O)C(=O)N1CCC[C@H]1C(=O)N[C@@H](CCCNC(=N)N)C(=O)N[C@@H](CCCNC(=N)N)C(=O)N[C@@H](CCCNC(=N)N)C(=O)N[C@@H](CCCNC(=N)N)C(=O)N[C@@H](CO)C(=O)N[C@@H](CCC(N)=O)C(=O)N[C@@H](COP(=O)(O)O)C(=O)N1CCC[C@H]1C(=O)N[C@@H](CCCNC(=N)N)C(=O)N[C@@H](CCCNC(=N)N)C(=O)N[C@@H](CCCNC(=N)N)C(=O)N[C@@H](CCCNC(=N)N)C(=O)N[C@@H](CO)C(=O)N[C@@H](CCC(N)=O)C(=O)N[C@@H](CO)C(=O)N[C@@H](CCCNC(=N)N)C(=O)N[C@@H](CCC(=O)O)C(=O)N[C@@H](CO)C(=O)N[C@@H](CCC(N)=O)C(=O)N[C@@H](CS)C(=O)O)[C@@H](C)O [HBc155p162p170p] | > 32 | > 154.5 | > 32 | > 154.5 | > 154.5 | > 32 | > 154.5 | > 32 | > 32 | > 154.5 | – | > 32 | > 154.5 | > 32 | > 154.5 | > 32 µM | – | – |
| C[C@@H](O)[C@H](NC(=O)[C@H](CCCNC(=N)N)NC(=O)[C@H](CCCNC(=N)N)NC(=O)[C@@H](N)CCCNC(=N)N)C(=O)N1CCC[C@H]1C(=O)N[C@@H](CO)C(=O)N1CCC[C@H]1C(=O)N[C@@H](CCCNC(=N)N)C(=O)N[C@@H](CCCNC(=N)N)C(=O)N[C@@H](CCCNC(=N)N)C(=O)N[C@@H](CCCNC(=N)N)C(=O)N[C@@H](CO)C(=O)N[C@@H](CCC(N)=O)C(=O)N[C@@H](CO)C(=O)N1CCC[C@H]1C(=O)N[C@@H](CCCNC(=N)N)C(=O)N[C@@H](CCCNC(=N)N)C(=O)N[C@@H](CCCNC(=N)N)C(=O)N[C@@H](CCCNC(=N)N)C(=O)O [HBc157-175] (H-RRRTPSPRRRRSQSPRRRR-OH; N-terminus and C-terminus assumed) | > 32 | > 80.58 | 2 | – | > 80.58 | > 32 | > 80.58 | – | – | – | – | – | – | – | – | – | strong activity | – |
| C[C@@H](O)[C@H](NC(=O)[C@H](CCCNC(=N)N)NC(=O)[C@H](CCCNC(=N)N)NC(=O)[C@@H](N)CCCNC(=N)N)C(=O)N1CCC[C@H]1C(=O)N[C@@H](CO)C(=O)N1CCC[C@H]1C(=O)N[C@@H](CCCNC(=N)N)C(=O)N[C@@H](CCCNC(=N)N)C(=O)N[C@@H](CCCNC(=N)N)C(=O)N[C@@H](CCCNC(=N)N)C(=O)N[C@@H](CO)C(=O)N[C@@H](CCC(N)=O)C(=O)N[C@@H](CO)C(=O)N1CCC[C@H]1C(=O)N[C@@H](CCCNC(=N)N)C(=O)N[C@@H](CCCNC(=N)N)C(=O)N[C@@H](CCCNC(=N)N)C(=O)N[C@@H](CCCNC(=N)N)C(=O)N[C@@H](CO)C(=O)O [HBc157-176] (H-RRRTPSPRRRRSQSPRRRRS-OH; N-terminus and C-terminus assumed) | 2 | 5.2 | 2 | 5.2 | > 83.36 | > 32 | > 83.36 | – | – | – | – | – | – | – | – | – | strong activity | – |
| HBc147-159: HBc ARD peptide ARD I–II (TVVRRRGRSPRRR; UniProt P03147 147-159, looked up, fragment) | – | – | – | – | – | – | – | – | – | – | – | – | – | – | – | – | – | no activity |
| HBc162-175: HBc ARD peptide ARD III–IV (SPRRRRSQSPRRRR; UniProt P03147 162-175, looked up, fragment) | – | – | – | – | – | – | – | – | – | – | – | – | – | – | – | – | – | no activity |
| HBc164-176: HBc ARD peptide ARD III–IV (RRRRSQSPRRRRS; UniProt P03147 164-176, looked up, fragment) | – | – | – | – | – | – | – | – | – | – | – | – | – | – | – | – | – | no activity |
